The term IC50 denotes the midpoint of a concentration-inhibition curve. A higher IC50 goes with a need for much substance.

Consider two compounds from patent US6576622B1, “Drug combination for the treatment of viral diseases” (University of Medicine & Dentistry of New Jersey, priority 1995, dated 2003).

The subject of series [1] is MLV-neo. Description: MLV-neo colony formation in the presence of antiviral agents. It counts as cell-based, Moloney Leukemia virus. The conditions noted are these: Hela-T4, AZT 10 uM, DDI 50 uM, DDC 10 uM, D4T 50 uM, control 9050. As for the experimental part: Production of recombinant HIV-gpt has been described elsewhere (26). The amphotropic cell line PA317 was transfected with the recombinant murine retrovirus pLXSN (36) and was used as the source of the recombinant MLV-neo virus. Stock preparations of HIV-1IIIB were harvested from H9 cells by the “shake off method” (13). Stock virus infectivity was determined by end-point dilution in MT-2 cells (32). Virus induced cytopathic effect was scored 7 days post-infection and the TCID50 was calculated with the Reed and Muench equation (33).
To confirm this high rate of infection in the absence of genetic drug resistance, we used several other recombinant viruses and host cells. […] A high rate of infection of Jurkat cells in the presence of d4T has also been seen.
Table 5. HIV-gpt produced in COS cells by transfection with plasmids (plasmid derived) is compared with HIV-gpt produced by, rescue from H9/HIV-gpt cell line after infection with HIV-IIIB and cells infected with MLV-neo.
(§1) Table 6. Colony formation and persistent resistance after Hela-T4 cell infection with MLV-neo virus in the presence and absence of various antiviral agents.

In series [2] the test system is R116 cell line. Description: MTT cytotoxicity assay in R116 cells. As to conditions: persistently resistant clone R116, three days. In kind it is cell-based. The method, then:
(§2) Three days later, drug cytotoxicity was quantitated with a standard MTT assay in which the uptake and metabolism of 3-[4,5-dimethylthiazol-2-yl]2,5-dephenyltetrazolium bromide (MTT) by cells was measured (14). The amount of formazan produced in 2 hours was determined by dissolving the product in 100% DMSO and then measuring the absorbance at 570 nm.
(§3) HeLa-T4 is the parental cell line.
(§4) Cells sensitive, parental HT4 (open circle), S1 (solid square), Spool (solid circle) and refractory, R116 (open square) were grown in the presence of various concentrations of FUdR. Three days latter, cell viability was determined by the MTT reduction method.
In general terms: Tetrazolium assays rely on reduction of a dye to a coloured formazan, in cell work by metabolically active cells.

In series [3] the test system is HIV-LacZ. In kind it is cell-based.
Series [4] concerns HIV-gpt. Description: HIV-gpt colony formation after infection of HeLa-T4 cells in the presence of antiretroviral agents. In kind it is cell-based. The conditions noted are these: for Number of colonies +AZT: colonies by day 10.
For series [5], the system named is recombinant HIV, recombinant MLV, or replication-competent HIV. It counts as cell-based.
Description: The presence of a selectable marker gene in the recombinant HIV allowed the isolation of cells infected by the recombinant viruses in the presence of d4T. These cells were characterized by infection with both additional recombinant viruses and by replication-competent viruses.
as §1

Series [6] can be described thus: HPLC analysis of phosphorylated AZT metabolites in clones incubated with 3H-AZT. In kind it is in vitro ADME. The conditions noted are these: 3H-AZT for 4 hours, HPLC. As for the experimental part: Cell lines were incubated with ^3H-thymidine or ^3H-AZT for 4 hours. Dried methanol extracts of the clones were redissolved in 60 μof distilled water and centrifuged to remove undissolved material. Twenty microliters of the sample was injected and separated on a 10×100 mm Rainin Hydropore anion exchange column. The nucleosides were eluted from the column with a linear gradient of potassium phosphate (5 mM to 1 M, pH4.0) at a flow rate of 1 ml/min. The samples were collected (0.5 ml), mixed with 5 ml Packard scintillation fluid, and quantitated using a liquid scintillation counter. Phosphorylated derivatives of thymidine and AZT were identified with authentic standards.
Pool sizes were determined by incubation of cells with ^3H-AZT for 4 hours followed by cellular extraction and HPLC. The numbers are expressed as pmoles/10^6 cells. The numbers in parentheses represent the percentage of total radioactive species in that pool.

Series [7] concerns HIV-1IIIB. Nature of the series: HIV-1IIIB infection of S1 and R116 cells with AZT and FUdR (RT activity). The conditions noted are these: 0.1 μM AZT. In kind it is cell-based. The method, then:
Infected cells were isolated in gpt selective media and expanded into cell lines. […] Cell line S1 is a control cell line.
Cell free supernatants were assayed for RT activity every two days. Results are the mean of triplicate cultures. Standard deviations were <15%.

The subject of series [8] is HIV-1 IIIB. Description: HIV-1 IIIB infection of Jurkat JE6.1 cell populations, AZT IC50 with FUdR (RT activity). In kind it is cell-based. The conditions noted are these: for IC50: Human immunodeficiency virus 1, IIIB, Jurkat, 144 h, concentration of AZT for 50% inhibition of RT activity at day 6, F = μM FUdR. The method, then:
HIV-1 production in infected, cultures was determined by a ^32P-based assay as described (34). RT activity was determined by […] of ^32P bound to the DE81 paper by using a Molecular Dynamics phosphorimager. The results are reported as pixel units per microliter of the reaction mixture.
In these experiments, three populations of cells were studied.

The subject of series [9] is HIV-1IIIB. The conditions noted are these: same AZT concentration as for the persistently resistant clone.
A short description of series [10]: MTT cytotoxicity assay in R116 cells. In kind it is cell-based. The conditions noted are these: human, R116 cell line, three days, FIG. 8, read-out: ED50 (cytotoxicity). The method, then:
as §2, §3, §4

Series [11] can be described thus: in vitro. The conditions noted are these: human.

For the compound `Cc1cn([C@H]2C[C@H](N=[N+]=[N-])[C@@H](CO)O2)c(=O)[nH]c1=O` [AZT, 3′-Azido-3′-deoxythymidine], the No. of colonies in series [1] is 12. In addition, the “cytotoxic concentration that killed 50%” value in [2] is “greater than 1 mM”. The “inhibition of HIV-LacZ infection” value in [3] (10 μM AZT, nine of twelve cell lines, like wild type HeLa-T4 cells) is listed as “complete inhibition of infection”. Besides, the Frequency in series [3] (frequency of persistently resistant colonies, HeLa-T4, plasmid derived HIV-gpt) is 3.4 × 10^−4; in [5] (frequency of persistently resistant colonies, Hela-T4, MLV-neo), 2.2 × 10^−4. For the same compound, the Number of colonies in [4] (HeLa-T4, plasmid derived HIV-gpt (COS cells), AZT 10 μM, DDI 50 μM, D4T 50 μM, no drug control 8800) came out at 12. The “Frequency of colony formation in the presence of AZT” value in [4] (HeLa-T4 cells, 10 μM AZT, HIV-gpt by rescue with HIV-1) is 5.0 × 10^−4; in [4] (HeLa-T4 cells, 10 μM AZT, plasmid-derived (COS cells) HIV-gpt), 5.2 × 10^−4. In addition, the “Number of colonies +AZT” value in series [4] (HeLa-T4 cells, 10 μM AZT, HIV-gpt by rescue with HIV-1, −AZT 1.8 × 10^4) was found to be 9; in series [4] (HeLa-T4 cells, 10 μM AZT, plasmid-derived (COS cells) HIV-gpt, −AZT 3.1 × 10^4), 16. In addition, the “prevalence of colony formation after infection in the presence of AZT” value in [4] (HeLa-T4 cells, 10 μM AZT, similar with the two preparations of HIV-gpt) is given as ~5×10^−4. The “subset of cells persistently refractory to d4T that were also refractory to the antiviral effects of AZT” value in [5] is “approximately 20%”. Besides, the concentration in cells is recorded as 0.0155 pmoles/10^6 cells in [6] (R116 (“persistently resistant”) cell line) and 0.0206 pmoles/10^6 cells in series [6] (S1 (sensitive) cell line). Further, in [7] (R116 cell line refractory to AZT, FIG. 7B), the “HIV replication in the presence of drug” value was “significant HIV replication”. In [7] (control S1 cell line, multiplicity of infection of 1, FIG. 7A), the antiviral efficacy result is reported as “potent antiviral efficacy”. Moreover, the values for the IC50 in series [8] (JE6.1AZTR cells (refractory to AZT)), in [8] (JE6.1Con cells (control)) and in [8] (JE6.1 cells) were 0.6 µM, 0.2 µM and 0.3 µM, respectively. Moreover, the “increase AZT IC50” value in series [8] (JE6.1AZTR entire population) was 2 fold. In addition, the “inhibition of infection of control cells by replication-competent HIV” value in [9] is “virtually complete inhibition”.
On to `O=c1[nH]c(=O)n([C@H]2C[C@H](O)[C@@H](CO)O2)cc1F` [FUdR, 2′-deoxy-5-fluorouridine], for which the figures for the EC50 at 3 days in series [10] and in series [11] were 700 nM and 7000 nM, respectively. Further, the “antiviral activity when used by itself” value in series [8] (in all of these studies) is “moderate antiviral activity”.
